ChEMBL document CHEMBL4673260, “Pyridine alkaloids with activity in the central nervous system” (Bioorg Med Chem, 2020)

Experiments:
[1] = biological target: 5-hydroxytryptamine receptor 4 (Homo sapiens) (UniProt Q13639); experiment: Inhibition of 5HT-4 (unknown origin) receptor at 10 uM relative to control
[2] = biological target: Sodium-dependent dopamine transporter (Homo sapiens) (UniProt Q01959); experiment: Inhibition of human dopamine transporter expressed in CHO-K1 cells at 10 uM relative to control; assay type: cell-based
[3] = biological target: 5-hydroxytryptamine receptor 2C (Homo sapiens) (UniProt P28335); experiment: Inhibition of human 5HT-2C receptor at 10 uM relative to control
[4] = biological target: Alpha-1B adrenergic receptor (Homo sapiens) (UniProt P35368); experiment: Inhibition of human adrenergic receptor alpha1B expressed in CHO-K1 cells at 10 uM relative to control; assay type: cell-based
[5] = biological target: Type-1 angiotensin II receptor (Homo sapiens) (UniProt P30556); experiment: Inhibition of human AT1 receptor expressed in CHO-K1 cells at 10 uM relative to control; assay type: cell-based
Homo sapiens [6] = organism: Homo sapiens; experiment: Inhibition of N-type calcium channel (unknown origin) at 10 uM relative to control
[7] = biological target: Beta-1 adrenergic receptor (Homo sapiens) (UniProt P08588); experiment: Inhibition of human adrenergic receptor beta1 expressed in CHO-K1 cells at 10 uM relative to control; assay type: cell-based
[8] = biological target: Beta-2 adrenergic receptor (Homo sapiens) (UniProt P07550); experiment: Inhibition of human adrenergic receptor beta2 expressed in CHO-K1 cells at 10 uM relative to control; assay type: cell-based
Homo sapiens [9] = organism: Homo sapiens; experiment: Inhibition of NOS (unknown origin) at 10 uM relative to control
Acetylcholinesterase = Acetylcholinesterase (Homo sapiens, UniProt P22303); experiment: Inhibition of acetylcholinesterase (unknown origin) at 10 uM relative to control
[10] = biological target: 5-hydroxytryptamine receptor 1D (Homo sapiens) (UniProt P28221); experiment: Inhibition of 5HT-1D receptor (unknown origin) at 10 uM relative to control
[11] = biological target: 5-hydroxytryptamine receptor 1A (Homo sapiens) (UniProt P08908); experiment: Inhibition of human 5HT-1a receptor at 10 uM relative to control
[12] = biological target: Muscarinic acetylcholine receptor M3 (Homo sapiens, UniProt P20309); experiment: Inhibition of human muscarinic M3 receptor expressed in CHO-K1 cells at 10 uM relative to control; assay type: cell-based
[13] = biological target: Mu-type opioid receptor (Homo sapiens) (UniProt P35372); experiment: Inhibition of human Mu-type opioid receptor at 10 uM relative to control
[14] = biological target: Alpha-2A adrenergic receptor (Homo sapiens) (UniProt P08913); experiment: Inhibition of human adrenergic receptor alpha2A expressed in CHO-K1 cells at 10 uM relative to control; assay type: cell-based
[15] = biological target: B2 bradykinin receptor (Homo sapiens) (UniProt P30411); experiment: Inhibition of BKR2 (unknown origin) at 10 uM relative to control
[16] = biological target: Leukotriene B4 receptor 1 (Homo sapiens) (UniProt Q15722); experiment: Inhibition of human BLT expressed in CHO-K1 cells at 10 uM relative to control; assay type: cell-based
[17] = biological target: Muscarinic acetylcholine receptor M1 (Homo sapiens) (UniProt P11229); experiment: Inhibition of human muscarinic M1 receptor expressed in CHO-K1 cells at 10 uM relative to control; assay type: cell-based
[18] = biological target: Muscarinic acetylcholine receptor M5 (Homo sapiens) (UniProt P08912); experiment: Inhibition of human muscarinic M5 receptor expressed in CHO-K1 cells at 10 uM relative to control; assay type: cell-based
Histamine H3 receptor = Histamine H3 receptor (Homo sapiens, UniProt Q9Y5N1); experiment: Inhibition of human histamine H3 receptor expressed in CHO-K1 cells at 10 uM relative to control; assay type: cell-based
[19] = biological target: Histamine H1 receptor (Homo sapiens) (UniProt P35367); experiment: Inhibition of human histamine H1 receptor expressed in CHO-K1 cells at 10 uM relative to control; assay type: cell-based
Homo sapiens [20] = organism: Homo sapiens; experiment: Inhibition of nAChR (unknown origin) at 10 uM relative to control
[21] = biological target: Sodium-dependent serotonin transporter (Homo sapiens) (UniProt P31645); experiment: Inhibition of human serotonin transporter expressed in HEK293 cells at 10 uM relative to control; assay type: cell-based
Homo sapiens [22] = organism: Homo sapiens; experiment: Inhibition of Glutamate receptor ionotropic NMDA agonist site (unknown origin) at 10 uM relative to control
[23] = biological target: Adenosine receptor A1 (Homo sapiens) (UniProt P30542); experiment: Inhibition of human adenosine receptor A1 expressed in CHO-K1 cells at 10 uM relative to control; assay type: cell-based
Homo sapiens [24] = organism: Homo sapiens; experiment: Inhibition of human protein kinase A at 10 uM relative to control
[25] = biological target: Gamma-aminobutyric acid type B receptor subunit 1 (Homo sapiens) (UniProt Q9UBS5); experiment: Inhibition of human GABA-B1 at 10 uM relative to control

Measured: inhibition

Chain of Beta-2 adrenergic receptor (Homo sapiens) (P07550 whole entry, looked up): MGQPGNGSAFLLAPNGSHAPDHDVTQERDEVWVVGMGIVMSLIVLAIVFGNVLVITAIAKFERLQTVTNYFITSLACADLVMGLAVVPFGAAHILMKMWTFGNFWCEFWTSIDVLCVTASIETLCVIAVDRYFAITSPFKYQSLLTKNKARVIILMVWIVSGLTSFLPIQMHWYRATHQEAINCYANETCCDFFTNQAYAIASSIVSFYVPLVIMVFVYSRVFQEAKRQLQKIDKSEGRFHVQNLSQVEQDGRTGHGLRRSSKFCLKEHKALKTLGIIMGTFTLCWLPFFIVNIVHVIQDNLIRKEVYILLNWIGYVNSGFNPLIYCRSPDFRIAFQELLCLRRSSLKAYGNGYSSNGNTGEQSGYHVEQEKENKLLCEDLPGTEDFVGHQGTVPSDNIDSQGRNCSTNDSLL
Chain of 5-hydroxytryptamine receptor 2C (Homo sapiens) (P28335 whole entry): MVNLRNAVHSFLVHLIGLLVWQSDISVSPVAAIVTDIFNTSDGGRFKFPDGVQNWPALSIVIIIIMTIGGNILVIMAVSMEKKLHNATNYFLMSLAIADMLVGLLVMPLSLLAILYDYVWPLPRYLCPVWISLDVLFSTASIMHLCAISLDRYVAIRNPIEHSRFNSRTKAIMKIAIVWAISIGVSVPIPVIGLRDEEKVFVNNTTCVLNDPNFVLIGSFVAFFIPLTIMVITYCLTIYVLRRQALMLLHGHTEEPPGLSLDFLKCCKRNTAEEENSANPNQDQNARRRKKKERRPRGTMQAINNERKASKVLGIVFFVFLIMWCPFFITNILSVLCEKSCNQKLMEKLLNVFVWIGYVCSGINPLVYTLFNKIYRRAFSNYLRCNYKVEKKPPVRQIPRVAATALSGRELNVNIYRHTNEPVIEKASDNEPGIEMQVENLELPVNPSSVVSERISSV
Chain of Gamma-aminobutyric acid type B receptor subunit 1 (Homo sapiens) (Q9UBS5 whole entry): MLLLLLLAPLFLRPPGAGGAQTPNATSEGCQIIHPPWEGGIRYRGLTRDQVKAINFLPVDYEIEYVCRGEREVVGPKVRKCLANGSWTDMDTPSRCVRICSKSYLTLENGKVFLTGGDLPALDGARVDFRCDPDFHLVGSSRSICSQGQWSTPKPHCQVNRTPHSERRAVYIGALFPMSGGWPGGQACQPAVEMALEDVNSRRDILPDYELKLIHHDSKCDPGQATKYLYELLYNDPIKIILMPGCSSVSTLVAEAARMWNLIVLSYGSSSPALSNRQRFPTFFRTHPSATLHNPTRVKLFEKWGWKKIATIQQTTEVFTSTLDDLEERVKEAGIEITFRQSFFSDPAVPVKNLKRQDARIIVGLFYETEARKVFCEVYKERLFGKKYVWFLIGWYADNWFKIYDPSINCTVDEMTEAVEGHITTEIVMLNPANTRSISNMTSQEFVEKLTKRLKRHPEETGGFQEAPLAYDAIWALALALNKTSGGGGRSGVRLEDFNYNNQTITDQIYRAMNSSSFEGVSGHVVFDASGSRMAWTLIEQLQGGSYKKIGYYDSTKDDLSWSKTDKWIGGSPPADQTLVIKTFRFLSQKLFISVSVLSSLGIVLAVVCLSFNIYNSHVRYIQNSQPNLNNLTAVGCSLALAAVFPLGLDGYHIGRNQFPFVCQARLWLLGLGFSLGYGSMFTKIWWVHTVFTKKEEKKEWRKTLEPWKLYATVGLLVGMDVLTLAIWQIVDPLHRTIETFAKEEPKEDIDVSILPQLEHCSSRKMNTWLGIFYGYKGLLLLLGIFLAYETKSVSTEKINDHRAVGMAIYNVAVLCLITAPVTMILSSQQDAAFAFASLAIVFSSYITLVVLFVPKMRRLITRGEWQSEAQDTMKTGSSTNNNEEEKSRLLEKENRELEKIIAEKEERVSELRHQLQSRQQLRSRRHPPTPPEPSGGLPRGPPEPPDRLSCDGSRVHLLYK
Chain of Acetylcholinesterase (P22303 whole entry): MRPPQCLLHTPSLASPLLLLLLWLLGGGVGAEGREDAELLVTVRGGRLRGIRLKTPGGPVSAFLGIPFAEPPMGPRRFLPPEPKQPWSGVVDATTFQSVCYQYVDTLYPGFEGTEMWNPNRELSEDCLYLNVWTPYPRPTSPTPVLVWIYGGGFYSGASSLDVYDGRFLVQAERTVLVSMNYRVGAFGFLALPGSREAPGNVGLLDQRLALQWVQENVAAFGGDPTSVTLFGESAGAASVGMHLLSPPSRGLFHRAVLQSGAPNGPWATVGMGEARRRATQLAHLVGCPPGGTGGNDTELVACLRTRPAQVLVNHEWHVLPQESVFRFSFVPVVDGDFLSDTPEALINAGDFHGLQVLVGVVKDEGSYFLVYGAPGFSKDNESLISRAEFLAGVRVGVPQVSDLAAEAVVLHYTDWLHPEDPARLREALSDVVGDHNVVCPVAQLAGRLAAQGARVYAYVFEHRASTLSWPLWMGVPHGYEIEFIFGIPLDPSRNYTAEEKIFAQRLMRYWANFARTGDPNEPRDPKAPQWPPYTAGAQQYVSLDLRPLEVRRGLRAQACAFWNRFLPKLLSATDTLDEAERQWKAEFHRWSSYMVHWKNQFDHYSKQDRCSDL
Chain of Sodium-dependent dopamine transporter (Homo sapiens) (Q01959 whole entry): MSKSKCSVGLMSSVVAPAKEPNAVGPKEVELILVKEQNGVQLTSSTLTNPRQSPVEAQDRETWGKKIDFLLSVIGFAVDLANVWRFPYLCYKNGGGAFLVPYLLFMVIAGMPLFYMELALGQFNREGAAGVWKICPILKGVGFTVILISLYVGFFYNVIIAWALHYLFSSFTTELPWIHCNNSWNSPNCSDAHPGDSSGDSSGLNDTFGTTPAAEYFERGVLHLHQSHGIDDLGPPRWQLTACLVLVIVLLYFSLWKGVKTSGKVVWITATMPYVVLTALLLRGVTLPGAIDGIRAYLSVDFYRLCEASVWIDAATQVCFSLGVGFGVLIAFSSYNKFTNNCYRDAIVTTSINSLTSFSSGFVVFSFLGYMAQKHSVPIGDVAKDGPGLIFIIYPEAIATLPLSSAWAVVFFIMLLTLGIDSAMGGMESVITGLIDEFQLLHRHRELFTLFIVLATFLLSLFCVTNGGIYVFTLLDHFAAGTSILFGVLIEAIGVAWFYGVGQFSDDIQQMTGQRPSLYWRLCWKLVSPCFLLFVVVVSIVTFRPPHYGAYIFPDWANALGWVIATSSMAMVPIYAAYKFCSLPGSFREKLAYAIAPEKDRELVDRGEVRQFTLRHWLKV
Chain of Muscarinic acetylcholine receptor M1 (Homo sapiens) (P11229 whole entry): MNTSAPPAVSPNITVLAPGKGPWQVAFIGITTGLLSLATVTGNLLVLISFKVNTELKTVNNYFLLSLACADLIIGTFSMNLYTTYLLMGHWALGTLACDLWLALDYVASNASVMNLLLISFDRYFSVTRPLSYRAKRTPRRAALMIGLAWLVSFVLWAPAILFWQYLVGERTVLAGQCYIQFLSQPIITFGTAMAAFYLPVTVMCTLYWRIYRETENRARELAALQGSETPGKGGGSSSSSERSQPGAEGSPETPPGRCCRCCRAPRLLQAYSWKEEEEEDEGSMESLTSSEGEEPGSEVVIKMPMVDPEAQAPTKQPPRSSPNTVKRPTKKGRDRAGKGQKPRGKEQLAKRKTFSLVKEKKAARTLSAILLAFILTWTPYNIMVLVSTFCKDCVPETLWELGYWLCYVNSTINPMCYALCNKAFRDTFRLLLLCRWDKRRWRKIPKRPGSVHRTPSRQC
Chain of Histamine H3 receptor (Q9Y5N1 whole entry): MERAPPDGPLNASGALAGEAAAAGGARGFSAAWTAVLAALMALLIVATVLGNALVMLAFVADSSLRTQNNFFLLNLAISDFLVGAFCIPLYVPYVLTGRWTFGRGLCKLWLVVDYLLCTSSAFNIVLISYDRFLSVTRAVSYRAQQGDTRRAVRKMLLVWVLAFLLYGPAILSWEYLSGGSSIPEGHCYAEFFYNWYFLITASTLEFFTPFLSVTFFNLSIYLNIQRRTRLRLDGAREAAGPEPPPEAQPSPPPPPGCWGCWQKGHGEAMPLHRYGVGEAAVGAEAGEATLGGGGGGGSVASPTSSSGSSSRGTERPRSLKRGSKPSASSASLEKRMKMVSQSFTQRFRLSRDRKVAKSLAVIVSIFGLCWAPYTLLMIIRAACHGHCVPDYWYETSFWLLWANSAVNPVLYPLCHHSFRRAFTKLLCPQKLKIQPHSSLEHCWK
Chain of Alpha-2A adrenergic receptor (Homo sapiens) (P08913 whole entry): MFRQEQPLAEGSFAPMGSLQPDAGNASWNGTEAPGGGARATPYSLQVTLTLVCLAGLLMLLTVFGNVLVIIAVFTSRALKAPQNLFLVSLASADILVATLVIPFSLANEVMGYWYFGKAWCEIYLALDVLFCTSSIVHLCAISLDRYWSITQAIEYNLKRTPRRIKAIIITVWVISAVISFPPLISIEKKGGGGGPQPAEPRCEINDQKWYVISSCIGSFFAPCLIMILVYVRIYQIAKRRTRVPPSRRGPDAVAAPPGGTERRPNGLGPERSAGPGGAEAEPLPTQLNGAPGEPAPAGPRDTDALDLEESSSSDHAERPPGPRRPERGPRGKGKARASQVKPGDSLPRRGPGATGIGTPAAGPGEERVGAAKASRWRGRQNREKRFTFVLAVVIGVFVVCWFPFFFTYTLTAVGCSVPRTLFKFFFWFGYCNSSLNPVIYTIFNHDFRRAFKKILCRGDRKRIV
Chain of Type-1 angiotensin II receptor (Homo sapiens) (P30556 whole entry): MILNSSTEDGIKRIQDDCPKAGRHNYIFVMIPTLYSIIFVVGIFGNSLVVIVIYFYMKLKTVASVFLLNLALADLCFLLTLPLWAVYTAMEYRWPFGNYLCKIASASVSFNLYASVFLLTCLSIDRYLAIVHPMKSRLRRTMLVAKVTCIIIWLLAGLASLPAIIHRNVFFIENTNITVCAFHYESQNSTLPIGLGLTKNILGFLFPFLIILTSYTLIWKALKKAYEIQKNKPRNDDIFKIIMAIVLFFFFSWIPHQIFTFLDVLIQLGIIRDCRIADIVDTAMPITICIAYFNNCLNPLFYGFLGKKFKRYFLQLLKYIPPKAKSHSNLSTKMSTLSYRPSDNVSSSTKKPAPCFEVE

CN1C(=O)CC[C@H]1c1cccnc1 [COTININE]
< 50%: [1] | [2] | [3] | [4] | [5] | Homo sapiens [6] | [7] | [8] | Homo sapiens [9] | Acetylcholinesterase | [10] | [11] | [12] | [13] | [14] | [15] | [16] | [17] | [18] | Histamine H3 receptor | [19] | Homo sapiens [20] | [21] | Homo sapiens [22] | [23] | Homo sapiens [24] | [25]
